Laboratory results as given in patent US20220324835A1 (Nurix Therapeutics, Inc., priority 2018, published 2022).

How the values were obtained:
T-cell [1] = experiment: CD25 cell surface staining on T-cells co-stimulated with anti-CD3 and anti-CD28 antibody (Biological Example 2); assay type: cell-based, human; details: Homo sapiens, T-cell, primary human total T-cells, baseline = anti-CD3/anti-CD28 stimulated cells without inhibitor, read-out: CD25 staining, Anti-CD3/Anti-CD28 stimulation, fold change over baseline; for fold induction at 0.3 µM: 0.3 μM compound; for fold induction at 1 µM: 1 μM compound; for fold induction at 4 µM: 4 μM compound
In short: (§1)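 Values are fold-change over baseline: readings (IL-2 release, CD25 staining) from inhibitor-treated T-cells divided against untreated cells […]. No detailed procedure stated.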

Cbl-b (residues 36-427) = Cbl-b (residues 36-427) (Homo sapiens, UniProt Q13191); experiment: Cbl-b binding assay (SPR, Biacore T200); details: 20° C., 1:1 binding model
Chain of Cbl-b (residues 36-427) (Q13191 36-427): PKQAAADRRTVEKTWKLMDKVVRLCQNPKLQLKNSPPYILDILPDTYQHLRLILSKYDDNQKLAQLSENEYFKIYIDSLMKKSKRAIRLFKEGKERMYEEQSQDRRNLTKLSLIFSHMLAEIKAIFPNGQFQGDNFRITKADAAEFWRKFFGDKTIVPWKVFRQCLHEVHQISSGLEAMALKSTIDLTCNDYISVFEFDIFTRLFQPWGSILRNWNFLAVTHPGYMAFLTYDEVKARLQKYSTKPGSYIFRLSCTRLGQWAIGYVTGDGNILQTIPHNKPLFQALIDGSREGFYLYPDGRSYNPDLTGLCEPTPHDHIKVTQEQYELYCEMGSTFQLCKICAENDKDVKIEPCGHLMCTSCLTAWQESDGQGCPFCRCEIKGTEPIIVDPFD
In short: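 NeutrAvidin capture chip, 20° C; 50 s injections at 50 μl/min, 90-180 s dissociation; 0.3 M NaCl regeneration. Asterisked column: 50 mM NaCl buffer and 30 nM Src kinase in place of 100 mM NaCl and 60 nM Src kinase. 1:1 fit.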

T-cell [2] = experiment: IL-2 secretion from T-cells stimulated with anti-CD3 antibody alone (Biological Example 2); assay type: cell-based; details: primary human total T-cells, read-out: IL-2 secretion, Anti-CD3 stimulation, fold change over baseline; for fold induction at 1 µM: 1 μM compound; for fold induction at 8 µM: 8 μM compound
T-cell [3] = experiment: CD25 cell surface staining on T-cells stimulated with anti-CD3 antibody alone (Biological Example 2); assay type: cell-based; details: primary human total T-cells, baseline = anti-CD3/anti-CD28 stimulated cells without inhibitor, read-out: CD25 staining, Anti-CD3 stimulation, fold change over baseline; for fold induction at 1 µM: 1 μM compound; for fold induction at 8 µM: 8 μM compound
Cbl-b [4] = target: T1, Cbl-b (Homo sapiens, UniProt Q13191); experiment: Cbl-b inhibition assay (Cbl-b activity assay, FRET, Biological Example 1; 100 mM NaCl, 60 nM Src kinase); assay type: biochemical; details: upper bound stated in text lists; read-out: IC50 values in the Cbl-b inhibition assay of Biological Example 1
T1 sequence (Q13191 36-427): as above
In short: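 Inhibitor activity is measured as reduced terbium-to-fluorescein FRET between streptavidin-terbium on biotinylated Cbl-b and Bodipy-fluorescein ubiquitin carried by an irreversible UbcH5B-Ub conjugate, binding of which depends on Src phosphorylation of Cbl-b.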

T-cell [5] = experiment: IL-2 secretion from T-cells co-stimulated with anti-CD3 and anti-CD28 antibody (Biological Example 2); assay type: cell-based, human; details: Homo sapiens, T-cell, primary human total T-cells, baseline = anti-CD3/anti-CD28 stimulated cells without inhibitor, read-out: IL-2 secretion, Anti-CD3/Anti-CD28 stimulation, fold change over baseline; for fold induction at 0.3 µM: 0.3 μM compound; for fold induction at 1 µM: 1 μM compound; for fold induction at 4 µM: 4 μM compound
In short: as §1

Cbl-b [6] = target: T1, Cbl-b; experiment: Cbl-b activity assay (Cbl-b inhibition assay), TR-FRET of Cbl-b interaction with UbcH5B-Ub; assay type: biochemical; details: assay buffer with 100 mM NaCl, 60 nM Src kinase; read-out: Cbl-b activity IC50
In short: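 Compound-treated Cbl-b was incubated 1.5 h with Src kinase (60 nM final; 30 nM for asterisked values, which also used 50 mM instead of 100 mM NaCl), 1 mM ATP and 5 mM MgCl2. Binding to fluorescent Ub-loaded UbcH5B (C85K mutant) was then read by TR-FRET after 1 h more.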

SMILES	fold induction at 0.3 µM (T-cell [1])	fold induction at 1 µM (T-cell [1])	fold induction at 4 µM (T-cell [1])	Kd (Cbl-b (residues 36-427))	fold induction at 1 µM (T-cell [2])	fold induction at 8 µM (T-cell [2])	fold induction at 1 µM (T-cell [3])	fold induction at 8 µM (T-cell [3])	IC50 (Cbl-b [4])	fold induction at 0.3 µM (T-cell [5])	fold induction at 1 µM (T-cell [5])	fold induction at 4 µM (T-cell [5])	IC50 (Cbl-b [6])
Cn1cnnc1C(F)(F)[C@](C)(F)c1cccc(N2Cc3c(cc(CN4CC(F)C4)cc3C(F)(F)F)C2=O)c1 [Compound 451, (R)-6-((3-fluoroazetidin-1-yl)methyl)-2-(3-(1,1,2-trifluoro-1-(4-methyl-4H-1,2,4-triazol-3-yl)propan-2-yl)phenyl)-4-(trifluoromethyl)isoindolin-1-one]	1.01 to 1.3	1.01 to 1.3	1.31 to 1.5	< 100 nM	0.101 to 0.15	> 0.201	0.801 to 1	> 1	≤ 300 nM	1.01 to 2.5	5 to 7.5	> 7.5	100 to 300 nM
C[C@H](Cc1n[nH]cc1C(F)(F)F)c1cccc(N2Cc3c(cc(C(=O)N4CC[C@H](O)C4)cc3C(F)(F)F)C2=O)c1 [Compound 465, 6-((S)-3-hydroxypyrrolidine-1-carbonyl)-4-(trifluoromethyl)-2-(3-((R)-1-(4-(trifluoromethyl)-1H-pyrazol-3-yl)propan-2-yl)phenyl)isoindolin-1-one]	1.01 to 1.3	1.01 to 1.3	1.01 to 1.3	< 100 nM	0.051 to 0.1	0.151 to 0.2	0.801 to 1	> 1	≤ 100 nM	1.01 to 2.5	1.01 to 2.5	2.51 to 5	< 100 nM
C[C@H](Cc1nncn1C)c1cccc(N2Cc3c(cc(CN4CCC(F)(F)C4)cc3C(F)(F)F)C2=O)c1 [Compound 396, (R)-6-((3,3-difluoropyrrolidin-1-yl)methyl)-2-(3-(1-(4-methyl-4H-1,2,4-triazol-3-yl)propan-2-yl)phenyl)-4-(trifluoromethyl)isoindolin-1-one]	1.01 to 1.3	1.01 to 1.3	1.31 to 1.5	< 100 nM	0.151 to 0.2	> 0.201	> 1	> 1	≤ 100 nM	2.51 to 5	5 to 7.5	> 7.5	< 100 nM
C[C@H](Cc1nncn1C)c1cccc(N2Cc3c(ccnc3C(F)(F)F)C2=O)c1 [Compound 371, (R)-2-(3-(1-(4-methyl-4H-1,2,4-triazol-3-yl)propan-2-yl)phenyl)-4-(trifluoromethyl)-2,3-dihydro-1H-pyrrolo[3,4-c]pyridin-1-one]	1.01 to 1.3	1.01 to 1.3	1.01 to 1.3	301 to 1000 nM	0.101 to 0.15	> 0.201	0.801 to 1	> 1	≤ 300 nM	1.01 to 2.5	2.51 to 5	5 to 7.5	100 to 300 nM
Cn1cnnc1CC1(c2cccc(N3Cc4c(cc(CN5CCC(F)(F)C5)cc4C(F)(F)F)C3=O)c2)COC1 [Compound 411, 6-((3,3-difluoropyrrolidin-1-yl)methyl)-2-(3-(3-((4-methyl-4H-1,2,4-triazol-3-yl)methyl)oxetan-3-yl)phenyl)-4-(trifluoromethyl)isoindolin-1-one]	1.01 to 1.3	1.01 to 1.3	1.01 to 1.3	< 100 nM	> 0.201	> 0.201	> 1	> 1	≤ 100 nM	2.51 to 5	> 7.5	> 7.5	< 100 nM
C[C@H](Cc1nncn1C)c1cccc(N2Cc3c(cc(CN4C[C@@H](F)[C@@H](O)C4)cc3C(F)(F)F)C2=O)c1 [Compound 418]	1.01 to 1.3	1.31 to 1.5	1.31 to 1.5	< 100 nM	0.151 to 0.2	> 0.201	> 1	> 1	≤ 100 nM	2.51 to 5	5 to 7.5	> 7.5	< 100 nM
C[C@@H](c1cccc(N2Cc3c(cccc3C(F)(F)F)C2=O)c1)C(F)(F)c1nncn1C [Compound 467a, (S)-2-(3-(1,1-difluoro-1-(4-methyl-4H-1,2,4-triazol-3-yl)propan-2-yl)phenyl)-4-(trifluoromethyl)isoindolin-1-one]	1.01 to 1.3	1.01 to 1.3	1.01 to 1.3	301 to 1000 nM	< 0.05	0.101 to 0.15	0.601 to 0.8	0.801 to 1	≤ 300 nM	1.01 to 2.5	1.01 to 2.5	2.51 to 5	100 to 300 nM
C[C@H](Cc1nncn1C)c1cccc(N2Cc3c(cc([C@H]4CCCNC4)cc3C(F)(F)F)C2=O)c1 [Compound 383, 2-(3-((R)-1-(4-methyl-4H-1,2,4-triazol-3-yl)propan-2-yl)phenyl)-6-((R)-piperidin-3-yl)-4-(trifluoromethyl)isoindolin-1-one]	1.31 to 1.5	1.51 to 1.75	1.51 to 1.75	100 to 300 nM	> 0.201	> 0.201	0.801 to 1	> 1	≤ 100 nM	2.51 to 5	5 to 7.5	> 7.5	< 100 nM
